Results on 17 compounds are retold here after ChEMBL document CHEMBL4177563, “The medicinal chemistry of Chikungunya virus” (Bioorg Med Chem, 2017).

Some results are limits rather than exact numbers.

As a reminder, the IC50 is the concentration at which inhibition is half-maximal. As usually defined, the CC50 is the concentration that lowers cell viability or growth by half. For orientation: EC50 means the midpoint of the concentration-response curve. A word on the Ki: it is the equilibrium dissociation constant of an inhibitor or competing ligand from its target.

Data set [1] relates to Chikungunya virus. In words: Antiviral activity against Chikungunya virus infected in African green monkey Vero cells after 72 hrs by MTT dye-based assay. It is filed as functional, organism-based. A general note: Tetrazolium dyes change colour on reduction, which living cells bring about.
Data set [2] is described as follows: Cytotoxicity against African green monkey Vero cells assessed as reduction in cell viability measured on day 6 to 7 post infection by MTS dye-based microscopic analysis. Conditions: chlorocebus sabaeus.
Data set [3] has as its system Chikungunya virus. In words: Antiviral activity against Chikungunya virus infected in African green monkey Vero cells assessed as inhibition of virus-induced cytopathogenic effect measured on day 6 to 7 post infection by MTS dye-based microscopic analysis. Conditions: 144 h. The class given is functional, organism-based.
For data set [4], the system named is Chikungunya virus. In words: Antiviral activity against Chikungunya virus LR2006 OPY1 infected in BHK cells measured at 14 hrs post infection by luciferase reporter gene assay. The class given is functional, organism-based.
The nature of data set [5]: Selectivity index, ratio of CC50 for BHK cells to IC50 for Chikungunya virus LR2006 OPY1. It is filed as toxicity. Conditions: hamster, read-out: Ratio CC50/IC50.
Data set [6] in a line: Cytotoxicity against BHK cells assessed as reduction in cell viability after 48 hrs in presence of ATP by Celltiter-Glo luminescent assay. The conditions noted are these: hamster. It is filed as cell-based, Mesocricetus auratus. For orientation: Cellular ATP, detected with luciferase, serves as a proxy for viable cell number.
Data set [7] relates to Chikungunya virus. In words: Antiviral activity against Chikungunya virus 899 infected in African green monkey Vero A cells by real-time qRT-PCR analysis. The class given is functional, organism-based. Conditions: Chikungunya virus, 899, Vero. A general note: Real-time PCR tracks product formation cycle by cycle.
The test system of data set [8] is Chikungunya virus. In words: Antiviral activity against Chikungunya virus 899 infected in African green monkey Vero A cells assessed as reduction in viral infectious progeny by end-point titration assay. It is filed as functional, organism-based. Conditions: Chikungunya virus, 899, Vero.
Data set [9] deals with Chikungunya virus. In words: Antiviral activity against Chikungunya virus 899 infected in African green monkey Vero A cells assessed as inhibition of virus-induced cytopathogenic effect measured on day 5 post infection by MTS/PMS based microscopic analysis. It is filed as functional, organism-based. Conditions: Chikungunya virus, 899, Vero, 120 h.
Data set [10] can be described thus: Cytotoxicity against African green monkey Vero A cells assessed as reduction in cell viability measured on day 5 post infection by MTS/PMS based microscopic analysis. The conditions noted are these: chlorocebus sabaeus.
In data set [11] the test system is Chikungunya virus. In words: Antiviral activity against Chikungunya virus 899 infected in African green monkey Vero cells assessed as inhibition of virus-induced cytopathogenic effect measured on day 5 post infection by MTS/PMS based microscopic analysis. The conditions noted are these: Chikungunya virus, 899, Vero, 120 h. The class given is functional, organism-based.

The subject of another data set is Vero. The experiment in a line: Cytotoxicity against African green monkey Vero cells assessed as reduction in cell viability measured on day 5 post dose by MTS/PMS based microscopic analysis. Conditions: chlorocebus sabaeus.
Data set [12] deals with Chikungunya virus. In words: Antiviral activity against Chikungunya virus KC969208 infected in African green monkey Vero cells after 48 hrs by MTT dye-based assay. It is filed as functional, organism-based.
Data set [13] can be described thus: Selectivity index, ratio of CC50 for African green monkey Vero cells to IC50 for Chikungunya virus KC969208. The class given is toxicity. The conditions noted are these: read-out: Ratio CC50/IC50.
In data set [14] the test system is Chikungunya virus. In words: Antiviral activity against Chikungunya virus KC969207 infected in African green monkey Vero cells after 48 hrs by MTT dye-based assay. The class given is functional, organism-based.
The nature of data set [15]: Cytotoxicity against African green monkey Vero cells assessed as reduction in cell viability after 4 days by MTT assay. The conditions noted are these: chlorocebus sabaeus. It is filed as cell-based.
A short description of data set [16]: Selectivity index, ratio of CC50 for African green monkey Vero cells to IC50 for Chikungunya virus KC969207. The class given is toxicity. The conditions noted are these: read-out: Ratio CC50/IC50.
The test system of data set [17] is Chikungunya virus. In words: Antiviral activity against Chikungunya virus 899 infected in African green monkey Vero cells by MTS assay. The conditions noted are these: Chikungunya virus, 899, Vero. The class given is functional, organism-based.
Data set [18] is described as follows: Selectivity index, ratio of CC50 for African green monkey Vero cells to EC50 for Chikungunya virus 899. The class given is toxicity. Conditions: read-out: Ratio CC50/EC50.
A short description of data set [19]: Cytotoxicity against African green monkey Vero cells assessed as reduction in cell viability after 18 hrs by […]. The class given is cell-based. Conditions: chlorocebus sabaeus.
Data set [20] is described as follows: Selectivity index, ratio of CC50 for African green monkey Vero cells to IC50 for Chikungunya virus MY/065/08/FN295485. The class given is toxicity. Conditions: read-out: Ratio IC50.
Data set [21] has as its system Chikungunya virus. The experiment in a line: Antiviral activity against Chikungunya virus MY/065/08/FN295485 infected in African green monkey Vero cells assessed as reduction in virus yield after 48 hrs by titration assay. It is filed as functional, organism-based. The conditions noted are these: MY/065/08/FN295485, Vero.
Data set [22] can be described thus: Binding affinity to Chikungunya virus […].

`O=c1cc(-c2ccccc2)oc2cc(O)cc(O)c12` [CHRYSIN] returned a half-maximal inhibitory concentration (IC50) in the data set with Chikungunya virus [1] of 22.5 to 127 µM.

With `C=C(C)[C@@]1(Oc2ccccc2)[C@@H]2OC3(c4ccccc4)O[C@H]1[C@@H](C)[C@]1(O3)C3=CC(=C(Cl)Cl)[C@H](c4ccccc4)[C@@]3(O)C[C@@]3(C)O[C@H]3[C@@H]21`, in data set [2], the CC50 is 23.1 µM. Also, the 50% effective concentration (EC50) in the data set on Chikungunya virus [3] was found to be 3 µM.

In turn, `CN(C)CCCN1c2ccccc2Sc2ccc(Cl)cc21` [CHLORPROMAZINE] returned an IC50 in the data set with Chikungunya virus [4] of 15.7 µM. Further, the selectivity ratio in [5] was 4.5. In data set [6], the half-maximal cytotoxic concentration (CC50) at 48 h amounted to 67.3 µM.

For the compound `CCSc1ccc2c(c1)N(CCCN1CCN(C)CC1)c1ccccc1S2` [THIETHYLPERAZINE], the IC50 with Chikungunya virus [4] was 15 µM. Besides, the selectivity ratio in data set [5] turned out to be 5.5. In addition, the CC50 at 48 h in data set [6] was determined as 83.1 µM.

For the compound `CCCCCCCC(=O)O[C@H]1/C(=C/C(=O)OC)C[C@H]2C[C@H](COC)OC(=O)CCOc3ccccc3C(=O)OCC(C)(C)[C@]1(O)O2`, the EC50 in the data set with Chikungunya virus [7] amounted to 6 µM; in the data set on Chikungunya virus [8], 4.1 µM; in the data set on Chikungunya virus [9], 7.5 µM. The 50% cytotoxic concentration (CC50) at 5 days in [10] was > 50 µM.

As to `CN1CCN(c2nc(C3=C(c4c[nH]c5ccccc45)C(=O)NC3=O)c3ccccc3n2)CC1` [SOTRASTAURIN], the EC50 in the data set with Chikungunya virus [11] is > 66 µM. Besides, the CC50 with Vero came out at 66 µM.

Consider `COc1cc(C2Oc3cc([C@H]4Oc5cc(O)cc(O)c5C(=O)[C@@H]4O)ccc3OC2CO)ccc1O` (stereo not given in full) [SILIBININ], for which the IC50 with Chikungunya virus [1] lay within 22.5 to 127 µM.

On to `CN(C)CC1CCn2c(cc3ccc(C4=C(c5cn(C)c6ccccc56)C(=O)NC4=O)cc32)C1` (stereo not given), for which the concentration giving a half-maximal response (EC50) in the data set with Chikungunya virus [11] is > 6 µM. Besides, the cytotoxic concentration (CC50) in the data set on Vero came to 35 µM.

Turning to `CCCCCCCC(=O)O[C@H]1/C(=C/C(=O)OC)C[C@H]2C[C@H](CC(=O)OC)OC(=O)CCOc3ccc(-c4c(OC)cccc4OC)cc3C(=O)OCC(C)(C)[C@]1(O)O2`, the concentration giving a half-maximal response (EC50) with Chikungunya virus [7] is 2.1 µM; in the data set with Chikungunya virus [8] it was 2 µM; in the data set with Chikungunya virus [9] it was 4 µM. The CC50 at 5 days in data set [10] was > 50 µM.

On to `CC(C)CCCC(C)CCCC(C)CCCC(C)CCO` (stereo not given), for which the IC50 with Chikungunya virus [12] was 112 µM; with Chikungunya virus [14], 1.66 µM. In addition, the selectivity ratio in data set [13] was 2.11; in data set [16], 156. For the same compound, the CC50 at 96 h in data set [15] is 259 µM.

As for `C=C(C)[C@@]1(Oc2ccccc2)[C@@H]2OC3(c4ccccc4)O[C@H]1[C@@H](C)[C@]1(O3)C3=CC(=C(Cl)Cl)C[C@@]3(O)C[C@@]3(Cc4ccccc4)O[C@H]3[C@@H]21`, the cytotoxic concentration (CC50) in data set [2] amounted to 93 µM. Further, the concentration giving a half-maximal response (EC50) in the data set on Chikungunya virus [3] came to 2.6 µM.

On to `OCCN1CCN(CCCN2c3ccccc3Sc3ccc(Cl)cc32)CC1` [PERPHENAZINE], for which the IC50 in the data set with Chikungunya virus [4] was 25.1 µM. Further, the selectivity ratio in data set [5] is 6.2. Further, in [6], the CC50 at 48 h was 155 µM.

Turning to `Cn1c2ccccc2c2c3c(c4c5ccccc5n(CCC#N)c4c21)CNC3=O` [GO-6976], the EC50 with Chikungunya virus [11] is > 6 µM. In the data set on Vero, the cytotoxic concentration (CC50) was determined as 6 µM.

On to `Cc1ccc(S(=O)(=O)Oc2ccc3c(CSC4=NCCC(=O)N4)cc(=O)oc3c2)cc1`, for which, in the data set on Chikungunya virus [17], the concentration for a half-maximal effect (EC50) was determined as 23.1 µM. Besides, the selectivity ratio in data set [18] amounted to 2.6. Moreover, in data set [19], the CC50 at 18 h stood at 60.2 µM.

As for `O=C(O)[C@H]1O[C@@H](Oc2cc3oc(-c4ccccc4)cc(=O)c3c(O)c2O)[C@H](O)[C@@H](O)[C@@H]1O` [BAICALIN], the selectivity ratio in data set [20] was 188. In addition, the IC50 in the data set with Chikungunya virus [21] came to 7 µM. In addition, in data set [22], the inhibitory constant (Ki) stood at 0.064 µM.

As to `CC1CCCCCCCC(C)C(=O)O[C@H]2/C(=C/Cl)C=C3[C@]45OC6(c7ccccc7)O[C@H]([C@@H]4[C@@H]4O[C@]4(CO)C[C@@]32O)[C@@](O)([C@@H](O6)[C@H]5C)C(O)(COC(=O)c2ccccc2O)C1` (stereo not given in full), the half-maximal cytotoxic concentration (CC50) in data set [2] came to 4.6 µM. Besides, in the data set on Chikungunya virus [3], the 50% effective concentration (EC50) was determined as 1.9 µM.

`O=C1CCN=C(SCc2cc(=O)oc3cc(OS(=O)(=O)c4ccccc4[N+](=O)[O-])ccc23)N1`: the concentration giving a half-maximal response (EC50) with Chikungunya virus [17] is 13 µM. For the same compound, in [18], the selectivity ratio is 5.8. The CC50 at 18 h in data set [19] came to 75.2 µM.
